Tested on: markers of innate activation
Test: in vivo activity, markers of innate activation after IV injection
Details: Rhesus; 24-72 hours after IV injection
From the text: Based on these findings in mice we explored the potential for the use of polyIC-LC/αCD40 combination vaccination in non-human primates (NHP) in order to validate the clinical efficacy. Human anti-human CD40 (Kirin Pharmaceuticals) having the variable heavy and light sequences in the Sequence Listing were produced in cell culture. CD40 binding activity and agonistic activity was confirmed against both human and Rhesus Macaque PBMCs. In vivo activity in Rhesus was also confirmed by examining markers of innate activation 24-72 hours after IV antibody injection. PolyIC-LC was obtained from Oncovir Inc. and its activity was confirmed in vivo similar to the αCD40.

PolyIC-LC
In vivo activity (markers of innate activation): confirmed

Source: patent US20160015803A1, “IMMUNOSTIMULATORY COMBINATIONS AND USE THEREOF” (priority 2014, published 2016)
